In patent publication US20140088000A1, “Leptin Rescues Neurons from Alzheimer's Disease Related Pathways Triggered by Lipid Burden” (Neurotez, Inc., priority 2012, published 2014):

Legend:
[1] = tested on: AMP-activated protein kinase (AMPK); assay: AMPK activity assay in lysates of treated RA-SY5Y cells (CycLex kit, Compound C-sensitive kinase activity); type: cell-based, human; conditions: 6 h, FIG. 2A
Protocol: (§1) RA-SY5Y were treated with Leptin (100 ng/ml) in the presence of ceramide (25 μM), cholesterol (27.5 μg/mL), oleic acid (30 μg/mL) or vehicle (MβCD—675 μg/mL; or DMSO—0.125%) for 6 h, and then harvested by scraping. Preparation of whole cell lysates from cell pellets was performed as described previously (32).
AMPK activity in RA-SY5Y cell lysates was determined using the CycLex AMPK Kinase Assay Kit (MBL International; Woburn, Mass.), as previously described (33, 34). Briefly, “relative AMPK activity”, hereafter referred to as “AMPK activity”, is defined as Compound C-sensitive protein kinase activity in cell lysates. […] Lysates were incubated in the presence or absence of 10 μM Compound C, and protein kinase activity determined by measuring phosphorylation of the Insulin Receptor Substrate-I (IRS-1) through immunoassay and conversion of a chromogenic substrate at an absorbance of 450 nm (Ai50). […]
We have previously shown that Leptin regulates AD pathways via activation of the cellular energy sensors, AMP-activated protein kinase (AMPK) and the sirtuins (SIRT) in neuronal cells (35, 36). To this end, we determined whether Leptin has the ability to attenuate these effects on cellular energetics in an acute model of metabolic stress (FIG. 2). […]

[2] = tested on: tau; assay: Phospho-tau (pThr231, pSer396) and total tau ELISA in RA-SY5Y lysates; type: cell-based, human; conditions: 6 h, FIG. 3; for effect of lipid insult on tau phosphorylation (pTau231, pTau396): no Leptin, normalized to total tau
Protocol: as §1
Aβ(1-40) levels in cell culture media from SY5YAPP751 cells treated for 18 h with the aforementioned metabolic insults in the presence or absence of Leptin, were determined using the Human βAmyloid 1-40 ELISA kit (Invitrogen; Carlsbad, Calif.), and phospho- and total tau levels in RASY5Y lysates were determined using the Human Tau pSer396, pThr231 and Total Tau ELISA kits (Invitrogen) according to manufacturer's specific instructions. Aβ(1-40), phosho- and total tau levels were calculated from a standard curve developed with OD at 450 nm using 8 serial dilutions of known concentration.
Metabolic stress has been linked to the activation of AD pathological pathways, with lipids known to play an important role (21-23). We therefore investigated the extent to which lipids can induce hyperphosphorylation of tau (FIG. 3) and AP production (FIG. 4) in neuronal cells, and determined whether Leptin could prevent these effects. Utilizing similar lipid doses as previous experiments, RA-SY5Y were treated for 6 h with Leptin (100 ng/mL) or control in the presence or absence of ceramide, cholesterol or oleic acid, and phosphorylation of tau at two different epitopes, pTau231 (FIG. 3A) or pTau396 (FIG. 3B), as well as total tau measured by ELISA.

[3] = tested on: Aβ; conditions: neurons; cited from earlier work
[4] = tested on: Aβ(1-40); assay: Extracellular Aβ(1-40) ELISA in culture media of SY5Y cells stably over-expressing human APP751; type: cell-based; conditions: Leptin 100 ng/mL, 18 h, SY5Y APP751, with ceramide, cholesterol or oleic acid; FIG. 4
Protocol: To generate SY5Y stably over-expressing amyloid precursor protein (APP), cells were transfected with a mammalian expression vector encoding the 751 amino acid isoform of human APP (APP751—Accession #NM 201413) (Origene Technologies; Rockville, Md.) using the FuOENE HD transfection reagent, according to manufacturer's specific instructions (Promega; Madison, Wis.). Briefly, cells were transiently transfected with APP751 or vehicle for 48 h and then switched into selection medium containing a concentration range of the antibiotic 0418 (100-600 μg/mL) to determine the optimal dose for stable selection. Selection media was changed every 3 days to remove non-viable cells. After 3 weeks, 200 μg/mL 0418 yielded distinct colonies while all vehicle-transfected cells were non-viable. […] Aβ(1-40) levels in cell culture media from SY5YAPP751 cells treated for 18 h with the aforementioned metabolic insults in the presence or absence of Leptin, were determined using the Human βAmyloid 1-40 ELISA kit (Invitrogen; Carlsbad, Calif.), and phospho- and total tau levels in RASY5Y lysates were determined using the Human Tau pSer396, pThr231 and Total Tau ELISA kits (Invitrogen) according to manufacturer's specific instructions. Aβ(1-40), phosho- and total tau levels were calculated from a standard curve developed with OD at 450 nm using 8 serial dilutions of known concentration. […]

[5] = tested on: RA-SY5Y cells; assay: Cell viability assay (Cell-Titer Blue) during lipid/metabolic insult; type: cell-based, human
Protocol: The human neuroblastoma cell line, SH-SY5Y, was purchased from ATCC. Cell culture was performed according to manufacturer's specific guidelines. Cells were propagated in MEM containing 10% FBS. Neuronal differentiation was performed as described previously (32).
RA-SY5Y, at 2×10^4 cells/well, were seeded in 96-well microplates and treated for 48 h with a range of concentrations of MβCD, DMSO, ceramide, cholesterol or oleic acid to determine effective doses for 50-70% viability (data not shown), or in the presence of a range of concentrations of Leptin to determine effective doses to prevent cell death. Viability was assessed using the Cell-Titer Blue Viability Assay (Promega) by adding 20 μL of the reagent to each well for 4 h, and plates read by a microplate reader with fluorescence capabilities at Ex530-570 nm/Em580-620 nm. Viability was determined using a standard curve of known cell number and plotted as a percent of non-treated or vehicle control.
Doses of the lipids which decreased neuronal viability by 25-50% (Ceramide—25 μM; Cholesterol—27.5 μg/mL and Oleic Acid—30 μg/mL) after 18 h treatment (data not shown) were used to determine whether co-treatment with Leptin, an important modulator of lipid homeostasis, could attenuate the toxic effects of the insults (FIG. 1). RA-SY 5Y were treated for 18 h with either a low (10 ng/mL; gray bars) or moderate (100 ng/mL; black bars) dose of Leptin or control (white bars) in the presence or absence of ceramide, cholesterol or oleic acid, and cell viability measured. All lipid insults induced a significant (p<0.05) decrease in cell viability in the range of 35±15% when treated with control alone.

[6] = tested on: sirtuins (SIRT); assay: SIRT (total sirtuin) activity assay in lysates of treated RA-SY5Y cells (nicotinamide-sensitive deacetylase activity); type: cell-based, human; conditions: Leptin 100 ng/mL, 6 h, with ceramide, cholesterol or oleic acid, FIG. 2B
Protocol: as §1
“Total sirtuin”, hereafter termed “SIRT’, activity in cell lysates was determined using the HDAC Fluorimetric Cellular Activity Assay Kit (Enzo Life Sciences; Plymouth Meeting, Pa.), according to manufacturer's specified guidelines. Briefly, SIRT activity is defined as nicotinamide-sensitive deacetylase (class III HDAC) activity in cell lysates. 5 mM nicotinamide was identified by the manufacturer as a dose in which there was no further reduction in deacetylase activity upon increasing concentration. RA-SY5Y cell lysates were incubated in the presence or absence of 5 mM nicotinamide, and SIRT activity determined by adding the Flour de Lys Substrate for deacetylation followed by exposure to the Fluor de Lys Developer to generate a fluorescent signal for detection using a fluorimeter (EX−350-380 nm/Em440-460 nm). Normalized SIRT activity was measured in units of fluorescence intensity (Fi) and defined as: (Filysate−Filysate+nicotinamide)/μg proteinlysate. […]

[7] = mice having mutations on the ob gene, administration of leptin; cited from earlier work
[8] = transgenic model of AD; cited from earlier work

CC(C)CCC[C@@H](C)[C@H]1CC[C@H]2[C@@H]3CC=C4C[C@@H](O)CC[C@]4(C)[C@H]3CC[C@]12C [Cholesterol, cholesterol, reference compound]
effect of lipid insult on AMPK activity ([1]; cholesterol 27.5 μg/mL, no Leptin): significantly (p<0.05) suppress | effect of lipid insult on tau phosphorylation (pTau231, pTau396) [2]: induced significant (p<0.05) increases in tau phosphorylation at either epitope

CCCCCCCC/C=C\CCCCCCCC(=O)O [Oleic Acid, oleic acid]
effect of lipid insult on tau phosphorylation (pTau231, pTau396) [2]: induced significant (p<0.05) increases in tau phosphorylation at either epitope

Leptin: recombinant human Leptin purchased from Sigma-Aldrich; adipocyte-derived helical protein hormone
amount of Aβ secreted into the medium [3]: reduces the amount of Aβ secreted into the medium in a time- and dose-dependent fashion | AMPK activity under lipid insult with Leptin ([1]; Leptin 100 ng/mL, with ceramide, cholesterol or oleic acid): significantly (p<0.05) boost both AMPK and SIRT activity in response to all lipid insults | extracellular Aβ(1-40) levels under lipid insult with Leptin [4]: significantly (p<0.05) reduced Aβ(1-40) levels as similar to control | cell viability under lipid insult, low dose Leptin ([5]; Leptin 10 ng/mL, 18 h, with ceramide, cholesterol or oleic acid, FIG. 1): significantly (p<0.05) improve viability only in response to the cholesterol insult | cell viability under lipid insult, moderate dose Leptin ([5]; Leptin 100 ng/mL, 18 h, with ceramide, cholesterol or oleic acid, FIG. 1): significantly (p<0.05) improved viability in response to all challenges | cell viability under lipid insult, high dose Leptin ([5]; Leptin 1000 ng/mL, versus 100 ng/mL group, data not shown): not significantly (p>0.05) different from the moderate group's viability | SIRT activity under lipid insult with Leptin [6]: significantly (p<0.05) boost both AMPK and SIRT activity in response to all lipid insults, with the exception of ceramide for SIRT | reduction of body weight [7]: 30% | cognitive performance [8]: improves cognitive performance | tau phosphorylation and Aβ production [8]: reduces both tau phosphorylation and Aβ production | tau hyperphosphorylation under lipid insult with Leptin ([2]; Leptin 100 ng/mL simultaneous treatment, oleic acid insult (far right group)): significantly (p<0.05) prevented this hyperphosphorylation
